One block for each compound: values may come before it.
Legend:
[1] = system: B. subtilis PreQ1 (SHAPE-MaP) (RNA, riboswitch) GGGCCUUCGGGCCAAGCGGGAGAGGUUCUAGCUACACCCUCUAUAAAAAACUAAGGACGAGCUGUAUCCUUGGAUACGGCCUUUUUCGAUCCGGUUCGCCGGAUCCAAAUCGGGCUUCGGUCCGGUUC; test: SHAPE-MaP (2A3); conditions: 100 mM KCl, 1 mM MgCl2
[2] = system: L. rhamnosus PreQ1 (SHAPE-MaP) (RNA, riboswitch) GGGCCUUCGGGCCAAGGAACCGCCCCGCGCGCUUCCACGAUACUUAUUUCCUUUGAUCGUCGUUAUUACUGGCAAAGCCACAAAGGAGUCGAUCCGGUUCGCCGGAUCCAAAUCGGGCUUCGGUCCGGUUC; test: SHAPE-MaP (2A3); conditions: 100 mM KCl, 1 mM MgCl2
[3] = system: F. prausnitzii PreQ1 (SHAPE-MaP) (RNA, riboswitch) GGGCCUUCGGGCCAAGGAACGCUGAAAGAGCAACUUAGGAUUUUAGGCUCCCCGGCGUGUCUCGAACCAUGCCGGGCCAAACCCAUAGGGCUGGCGGUCCCUGUGCGGUCAAAAUUCAUCCGCCGGAGUAUUGUUAUCGAUCCGGUUCGCCGGAUCCAAAUCGGGCUUCGGUCCGGUUC; test: SHAPE-MaP (2A3); conditions: 100 mM KCl, 1 mM MgCl2
[4] = system: S. pneumoniae PreQ1 (SHAPE-MaP) (RNA, riboswitch) GGGCCUUCGGGCCAACUUGGUGCUUAGCUUCUUUCACCAAGCAUAUUACACGCGGAUAACCGCCAAAGGAGAAUCGAUCCGGUUCGCCGGAUCCAAAUCGGGCUUCGGUCCGGUUC; test: SHAPE-MaP (2A3); conditions: 100 mM KCl, 1 mM MgCl2
[5] = system: Tte-PreQ1 ab13_14_15 (RNA, riboswitch, abasic at 13, 14 and 15) CUGGGUCGCAGUNNNCCCAGUUAACAAAACAAG; test: X-ray crystallography, 2.15 Å; conditions: potassium sodium tartrate 100-300 mM; sodium citrate pH 5.6, ammonium sulfate 2.0-2.6 M, 20 °C
[6] = system: Bsu PreQ1 RNA (MAGNA) (RNA, riboswitch) UCGGCGAUCUACGCAGCGACAUAAUAAGAGGUUCUAGCUACACCCUCUAUAAAAAACUAAUAACAACCACUUCCUAAUCUGUCAUCUUCUG; test: magnetic force spectroscopy (MAGNA), median unfolding force; conditions: 100 mM KCl, 1 mM MgCl2; 50 mM HEPES pH 7.4, 1% DMSO, 22 °C; from refolding force 456±258 μM
[7] = system: Cy5-labeled Bsu PreQ1 aptamer (RNA, riboswitch) GCGGGAGAGGUUCUAGCUACACCCUCUAUAAAAAACUAAGGACGAGCUGUAUCCUUGGAUACGGCC; test: MST; conditions: 100 mM KCl, 1 mM MgCl2, 50 mM Tris pH 7.5, room temperature, DMSO
[8] = system: Cy5-labeled Bsu PreQ1 aptamer (RNA, riboswitch) GCGGGAGAGGUUCUAGCUACACCCUCUAUAAAAAACUAAGGACGAGCUGUAUCCUUGGAUACGGCC; test: MST (Figure S1 legend); text says ligand fluorescence; conditions: 100 mM KCl, 1 mM MgCl2; 50 mM Tris pH 7.5, room temperature, DMSO
[9] = system: Tte-PreQ1 ab13_14_15 (RNA, riboswitch, abasic at 13, 14 and 15) CUGGGUCGCAGUNNNCCCAGUUAACAAAACAAG; test: X-ray crystallography, 2.25 Å; conditions: potassium sodium tartrate 100-300 mM; sodium citrate pH 5.6, ammonium sulfate 2.0-2.6 M, 20 °C
[10] = system: Cy5-labeled Bsu PreQ1 aptamer (RNA, riboswitch) GCGGGAGAGGUUCUAGCUACACCCUCUAUAAAAAACUAAGGACGAGCUGUAUCCUUGGAUACGGCC; test: Cy5 fluorescence intensity assay (text says ligand fluorescence); conditions: 100 mM KCl, 1 mM MgCl2; 50 mM Tris pH 7.5, room temperature, 5% DMSO, 50 nM RNA
[11] = system: T. tengcongensis PreQ1 (SHAPE-MaP) (RNA, riboswitch) GGGCCUUCGGGCCAACUCACCUGGGUCGCAGUAACCCCAGUUAACAAAACAAGGGAGGUAAUUUUUCGAUCCGGUUCGCCGGAUCCAAAUCGGGCUUCGGUCCGGUUC; test: SHAPE-MaP (2A3); conditions: 100 mM KCl, 1 mM MgCl2; 50 mM Tris pH 7.5, 10 μM compound
[12] = system: Bsu PreQ1 RNA (MAGNA) (RNA, riboswitch) UCGGCGAUCUACGCAGCGACAUAAUAAGAGGUUCUAGCUACACCCUCUAUAAAAAACUAAUAACAACCACUUCCUAAUCUGUCAUCUUCUG; test: magnetic force spectroscopy (MAGNA); conditions: 100 mM KCl, 1 mM MgCl2; 50 mM HEPES pH 7.4, 1% DMSO, 22 °C; 500 nM called saturating
[13] = 50 mM Tris pH 7.5, 150 μM compound
[14] = 50 mM Tris pH 7.5, 10 μM compound

SMILES: CNc1cc2c(=O)c3cc(O)ccc3oc2cn1
- binding ([7]; tested up to 500 μM): no

SMILES: COc1ccc2c(c1)Oc1ccc(N)cc1C(=O)N2
- KD [7]: 18.3 ± 7.0 µM

SMILES: NC(=O)COc1ccc2oc3ccccc3c(=O)c2c1
- KD [8]: > 500 µM

SMILES: COc1ccc2c(c1)NC(=O)c1cc(N)ccc1O2
- KD [7]: 1.9 ± 0.2 µM

SMILES: NCc1c[nH]c2nc(N)[nH]c(=O)c12
- binding [1, 14]: yes
- binding [11]: yes
- binding [2, 14]: yes
- binding [3, 14]: yes
- binding [4, 14]: yes
- binding [12]: yes

Second part, the compound after the results:

- binding [1, 13]: yes
- binding [2, 13]: yes
- binding [3, 13]: yes
- binding [4, 13]: yes
- binding [5]: yes
- EC50 [6]: 394 ± 157 µM
SMILES: CN(C)CCOc1ccc2oc3ccccc3c(=O)c2c1

- KD [7]: 58 ± 30 µM
SMILES: CN(C)CCOc1ccc2sc3ccccc3c(=O)c2c1

- binding [9]: yes
- KD [10]: 104.4 ± 20 µM
SMILES: Cc1nccc2c1[nH]c1cc(OCCN(C)C)ccc12

— paper doi:10.1101/2024.02.23.581746 (2024)
